Laboratory results: patent US20160038651A1, “COMPOUNDS AND COMPOSITIONS FOR DRUG RELEASE” (INTERFACE BIOLOGICS, INC., priority 2013, published 2016)
Converted amounts (≈) assume the structure as drawn. Where two headings read alike, the source gives them in different places.

Tests used:
S. aureus (ATCC 25923) [1] = experiment: MIC & MBC determination, standard broth microdilution method; assay type: cell-based; settings: for antimicrobial activity: broth microdilution, up to the highest concentration tested; for effect of the combination on the activity of CHX-A: tested in combination with CHX-A
Text: The antimicrobial efficacy of Compound 2 and drug released from Compound 2 was investigated using a standard broth microdilution method. The minimum inhibitory concentration (MIC) and minimum bactericidal concentration (MBC) were investigated for Compound 2, drug released from Compound 2, triethylene glycol (TEG), Ciprofloxacin hydrochloride (Cipro®HCl), chlorhexidine diacetate (CHX-A), and Compound 2+CHX-A. The MIC is defined as the lowest concentration of an antimicrobial agent that will inhibit visible growth of a microorganism after overnight incubation. The MBC is defined as the lowest concentration of an antimicrobial agent required to kill 99.9% of a microorganism population. This study was carried out using two gram positive bacteria, E. faecalis (ATCC 29212) and S. aureus (ATCC 25923), and two gram negative bacteria, E. coli (ATCC 25922) and P. aeruginosa (ATCC 27853). The test samples were prepared using 2-fold dilutions per well and covered a concentration range at least 2 dilutions above and 2 dilutions below literature MIC values for the microorganisms tested.
The antimicrobial efficacy of Compound 3 and drug released from Compound 3 investigated using a standard broth microdilution method. The MIC and MBC were investigated for Compound 3, drug released from Compound 3, TEG, Cipro®HCl, CHX-A, and Compound 3+CHX-A. This study was carried out using two gram positive bacteria, E. faecalis (ATCC 29212) and S. aureus (ATCC 25923), and two gram negative bacteria, E. coli (ATCC 25922) and P. aeruginosa (ATCC 27853). The test samples were prepared using 2-fold dilutions per well and covered a concentration range at least 2 dilutions above and 2 dilutions below literature MIC values for the microorganisms tested.

S. aureus (ATCC 25923) [2] = settings: cited from earlier work
mice = experiment: Acute Systemic Toxicity following ISO 10993-11; assay type: in vivo; settings: single injection 50 mL/kg per mouse, observed to 72 h
Experimental: A single injection dose of 50 mL/kg per mouse (˜1 mL) was administered to 5 mice per test sample.

New Zealand rabbits = experiment: Intracutaneous Reactivity, ISO 10993-10: 2010; assay type: in vivo; settings: 0.2 mL intracutaneous injections, scored after 24, 48, 72 h
Experimental: (§1) Compound 2 was dissolved in PBS (9.2×10 mg/mL) and tested for Intracutaneous Reactivity in accordance with ISO 10993-10: 2010 Standard, Biological Evaluation of Medical Devices, Part 10: Tests for Irritation and Skin Sensitization, Pages 11-14. Each rabbit received five sequential 0.2 mL intracutaneous injections along either side of the dorsal mid-line with the test article on one side and the control on the other. Three New Zealand rabbits were used per sample and control. The injection sites were observed and scored for erythema (redness) and edema (swelling) after 24, 48, and 72 h on a scale of 1 to 4.
as §1, with “Compound 3” for “Compound 2”, “PBS (5.4×10^−2” for “PBS (9.2×10”

[3] = Drug release in solution (PBS pH 7.4, 37° C., RP-HPLC); assay type: physicochemical; settings: 0.1 mg/ml in PBS pH 7.4, 37° C.
Experimental: Compound 2 was dissolved in PBS (pH 7.4) at 0.1 mg/ml and placed in incubator at 37° C. At each time point (0, 1, 3, 7, 14, 21, & 28 days), solution was removed from incubator and analyzed for the drug by RP-HPLC using established protocols (FIG. 6). […] The release profile of compound 2 was also evaluated in a device prototype assembly using bovine serum, blood (porcine) or a gel matrix.
Compound 3 was dissolved in PBS (pH 7.4) at 0.1 mg/ml and placed in incubator at 37° C. At each time point (0, 1, 3, 7, 14, 21, & 28 days), solution was removed from incubator and analyzed for drug by RP-HPLC using established protocols.

[4] = Accelerated drug release in acidic, basic or neutral conditions (RP-HPLC); assay type: physicochemical; settings: 37° C.
Experimental: Compound 2 was prepared at 10 mg/ml in 0.1 N HCl (final pH ˜4), 0.1 N NaOH (final pH ˜10), and PBS (final pH ˜7). Samples were incubated at 37° C. in acidic, basic, or neutral conditions. At each time point, the drug concentration was quantified by RP-HPLC.

| Compound | MBC Experimental (S. aureus (ATCC 25923) [1]; S. aureus, Table 4) [µg/mL] | MIC Experimental (S. aureus (ATCC 25923) [1]; S. aureus, Table 4) [µg/mL] | MBC Experimental (S. aureus (ATCC 25923) [1]; S. aureus, Table 5) [µg/mL] | MIC Experimental (S. aureus (ATCC 25923) [1]; S. aureus, Table 5, in µg/mL) | MBC Literature (S. aureus (ATCC 25923) [2]; Table 4) [µg/mL] | MIC Literature (S. aureus (ATCC 25923) [2]; Table 4) [µg/mL] | MBC Literature (S. aureus (ATCC 25923) [2]; Table 5) [µg/mL] | MIC Literature (S. aureus (ATCC 25923) [2]; Table 5) [µg/mL] | antimicrobial activity (S. aureus (ATCC 25923) [1]) | effect of the combination on the activity of CHX-A (S. aureus (ATCC 25923) [1]) | also measured |
| --- | --- | --- | --- | --- | --- | --- | --- | --- | --- | --- | --- |
| CC(=O)O.CC(=O)O.NC(=N\CCCCCC/N=C(N)/N=C(\N)Nc1ccc(Cl)cc1)/N=C(\N)Nc1ccc(Cl)cc1 [CHX-A, chlorhexidine diacetate] | 1 to 4 | 1 | 1 to 4 | 1 | 3.9 | 0.9 | 3.9 | 0.9 |  |  |  |
| O=C(O)c1cn(C2CC2)c2cc(N3CCNCC3)c(F)cc2c1=O [Cipro Released from Compound 3] |  |  | 1 (≈ 3.02 µM) | 0.5 |  |  |  |  | antimicrobial activity consistent with both the Cipro®HCl controls and literature values |  |  |
| O=C(OCCOCCOCCOC(=O)c1cn(C2CC2)c2cc(N3CCNCC3)c(F)cc2c1=O)c1cn(C2CC2)c2cc(N3CCNCC3)c(F)cc2c1=O [Compound 2] | >78 | >78 |  |  |  |  |  |  | did not show any antimicrobial activity | did not affect the activity of CHX-A | signs of toxicity (Acute Systemic Toxicity) (mice; in PBS 4×10^−5-9.7×10^−1 mg/mL, higher dosage): no signs of toxicity; irritation (erythema and edema, Intracutaneous Reactivity) (New Zealand rabbits; in PBS 9.2×10 mg/mL): non-irritant; total drug released ([3]; after 28 days): ~8%; drug release ([4]; 10 mg/ml in 0.1 N HCl (final pH ~4), after 7 days): ~71%; drug release ([4]; 10 mg/ml in 0.1 N NaOH (final pH ~10), in less than 1 day): 100%; drug release ([4]; 10 mg/ml in PBS (final pH ~7), after 7 days): ~2% |
| O=C(OCCOCCOCCO)c1cn(C2CC2)c2cc(N3CCNCC3)c(F)cc2c1=O [Compound 3] |  |  | >55.5 | >55.5 |  |  |  |  | did not show any antimicrobial activity | did not affect the activity of CHX-A | signs of toxicity (Acute Systemic Toxicity) (mice; in PBS 8×10^−4-8×10^−2 mg/mL, all concentrations): no signs of toxicity; irritation (erythema and edema, Intracutaneous Reactivity) (New Zealand rabbits; in PBS 5.4×10^−2 mg/mL): non-irritant; drug concentration with time (drug release) ([3]; out to at least 28 days): linear increase |
| OCCOCCOCCO [TEG, triethylene glycol] |  |  | >100 | >100 |  |  |  |  | No antimicrobial activity |  | MBC (S. aureus (ATCC 25923) [1]; Staphylococcus aureus, ATCC25923, S. aureus, Table 4, read-out: MBC Experimental): > 100 µg/mL; MIC (S. aureus (ATCC 25923) [1]; Staphylococcus aureus, ATCC25923, S. aureus, Table 4, read-out: MIC Experimental): > 100 µg/mL |
| Ciprofloxacin hydrochloride [Cipro*HCl] | 0.5 to 1 | 0.25 to 0.5 | 0.5 to 1 | 0.25-0.5 | 0.9 | 0.5 | 0.9 | 0.5 |  |  |  |
